For one test, the system named is PANC-1. Put plainly: Antiproliferative activity against human PANC1 cells. It is filed as functional, cell-based.
The next test relates to HCT-116. As to the kind of experiment: Antiproliferative activity against human HCT116 cells. It is filed as functional, cell-based.
The next test relates to HepG2. As to the kind of experiment: Antiproliferative activity against human HepG2 cells. It is filed as functional, cell-based.
Another test is filed under the species Homo sapiens. As to the kind of experiment: Inhibition of eEF1alpha protein expression in human PANC1 cells by Western blot analysis. It is filed as cell-based.

The structures appear in SMILES notation. Activity calls are given as the source filed them. The rule behind the calls is not given here.

In general, IC50 refers to the concentration at which inhibition is half-maximal.

With `CC[C@H](C)[C@H]1C(=O)N[C@H](Cc2ccc(O)c(Br)c2)C(=O)N[C@@H](C(C)(C)O)C(=O)O[C@H](c2ccccc2)[C@H](C)/C=C/C=C(\C)[C@H](OC)C[C@@H]2O[C@@]2(C)C(=O)N1C`, the results for the IC50 with PANC-1, with HCT-116 and in the test with HepG2 were 9.61 nM, 1.59 nM and 2.98 nM, respectively. The inhibition entry in the test listed under Homo sapiens was “Active”.
Take `CC[C@H](C)[C@H]1C(=O)N[C@H](Cc2ccc(O)c(Br)c2)C(=O)N[C@@H](C(C)(C)O)C(=O)O[C@H](c2ccccc2)[C@H](C)/C=C/C=C(\C)[C@H](OC)C/C=C(\C)C(=O)N1C`: the IC50 in the test on PANC-1 came to 11.4 nM; with HCT-116, 3.88 nM; in the test on HepG2 it was 5.21 nM. The inhibition result in the test listed under Homo sapiens was “Active”.
`CC[C@H](C)[C@H]1C(=O)N[C@H](Cc2cc(Cl)c(O)c(Cl)c2)C(=O)N[C@@H](C(C)C)C(=O)O[C@H](c2ccccc2)[C@H](C)/C=C/C=C(\C)[C@H](OC)C/C=C(\C)C(=O)N1C`: the figures for the IC50 with PANC-1, in the test with HCT-116 and with HepG2 were 137 nM, 21.6 nM and 104 nM, respectively. The inhibition entry in the test listed under Homo sapiens was “Active”.
Regarding `CC[C@H](C)[C@H]1C(=O)N[C@H](Cc2ccc(O)c(Br)c2)C(=O)N[C@@H](C(C)(C)O)C(=O)O[C@H](c2ccccc2)[C@H](C)/C=C/C=C(\C)[C@H](OC)C[C@H]2O[C@]2(C)C(=O)N1C`, the IC50 in the test with PANC-1, in the test with HCT-116 and with HepG2 was greater than 200 nM in each case. Also, the inhibition entry in the test filed under Homo sapiens was “Active”.
With `CC[C@H](C)[C@H]1C(=O)N[C@H](Cc2cc(Cl)c(O)c(Cl)c2)C(=O)N[C@@H](C(C)(C)O)C(=O)O[C@H](c2ccccc2)[C@H](C)/C=C/C=C(\C)[C@H](OC)C[C@@H]2O[C@@]2(C)C(=O)N1C`, the IC50 in the test with PANC-1 came to 12.2 nM; in the test on HCT-116, 2.11 nM; in the test with HepG2, 3.36 nM. In addition, the inhibition entry in the test listed under Homo sapiens was “Active”.
The matching figures for `CC[C@H](C)[C@H]1C(=O)N[C@H](Cc2cc(Cl)c(O)c(Cl)c2)C(=O)N[C@@H](C(C)(C)O)C(=O)O[C@H](c2ccccc2)[C@H](C)/C=C/C=C(\C)[C@H](OC)C/C=C(\C)C(=O)N1C`: 11.3 nM, 1.6 nM, 2.75 nM and “Active”.
For `CC[C@H](C)[C@H]1C(=O)N[C@H](Cc2ccc(O)c(Br)c2)C(=O)N[C@@H](C(C)C)C(=O)O[C@H](c2ccccc2)[C@H](C)/C=C/C=C(\C)[C@H](OC)C/C=C(\C)C(=O)N1C` the same measures were 55.8 nM, 13.2 nM, 53.7 nM and “Active”.
`CC[C@H](C)[C@H]1C(=O)N[C@H](Cc2cc(Cl)c(O)c(Cl)c2)C(=O)N[C@@H](C(C)(C)O)C(=O)O[C@H](c2ccccc2)[C@H](C)/C=C/C=C(\C)[C@H](OC)C[C@H]2O[C@]2(C)C(=O)N1C`: the IC50 with PANC-1, in the test on HCT-116 and with HepG2 was greater than 200 nM each time. Moreover, in the test listed under Homo sapiens, the inhibition entry is “Active”.
As for `CC[C@H](C)[C@H]1C(=O)N[C@H](Cc2ccc(O)c(Br)c2)C(=O)N[C@@H](C(C)C)C(=O)O[C@H](c2ccccc2)[C@H](C)/C=C/C=C(\C)[C@H](OC)C[C@@H]2O[C@@]2(C)C(=O)N1C`, the IC50 with PANC-1 stood at 15.7 nM; in the test on HCT-116 it was 3.93 nM; with HepG2 it was 6.84 nM. In addition, the inhibition result in the test listed under Homo sapiens is “Active”.
In the case of `CC[C@H](C)[C@H]1C(=O)N[C@H](Cc2cc(Cl)c(O)c(Cl)c2)C(=O)N[C@@H](C(C)C)C(=O)O[C@H](c2ccccc2)[C@H](C)/C=C/C=C(\C)[C@H](OC)C[C@@H]2O[C@@]2(C)C(=O)N1C`, the IC50 in the test on PANC-1 came out at 15.5 nM; in the test with HCT-116, 4.25 nM; with HepG2, 5.65 nM. The inhibition result in the test listed under Homo sapiens was “Active”.

The values above are taken from ChEMBL document CHEMBL4196092, “Synthesis and biological evaluation of nannocystin analogues toward understanding the binding role of the (2R,3S)-Epoxide in nannocystin A” (Eur J Med Chem, 2018).
